Measurements as given in article PMC7010297, “How the initiating ribosome copes with ppGpp to translate mRNAs” (PLoS Biology, 2020).
Where “and” joins values, the source holds several entries; their conditions need not be identical. Equal values may be shown once. Read-outs that look alike come from different tables or passages of the source.

Molecular target: T1, IF2-bound 30S IC (Escherichia coli, UniProt P0A705)
T1 construct: 6xHis (N); made in house
Experiment: 30S IC formation by MST, guanosine nucleotide titration
Assay type: binding
From the text: To monitor the interaction of initiator tRNA and 30S ribosomal subunits, we used Microscale Thermophoresis (MST) with a fluorescently labelled initiator tRNA (Bpy-tRNAi) (Fig 1B). MST allows to measure fluorescence in a constrained space. Changes on the readout derive from molecular drifts resulting from small thermal equilibrium perturbations. Upon equilibrium perturbations, the patterns of Bpy-tRNAi migration away from the observation space are related to bound and unbound states (Fig 1B). […] On the contrary, a decrease in thermophoresis indicated the dissociation of Bpy-tRNAi. The relation between fluorescence measured at both equilibriums (Ff to Fi, after and prior to the perturbation, respectively) as a function of ligand concentration allowed to determine dissociation constants of the interaction (Fig 1C).
Continuous lines indicate nonlinear regression fittings with a quadratic equation. Three measurements were performed; mean and standard deviation are plotted (S1 Data). (B) as (A) to measure the concentration dependence for each tested guanosine nucleotide at constant IF2 (1 μM). […] Continuous lines show best fits using exponential functions. (D) Formation of 70S IC as measured by Bpy-tRNAi accommodation in the P site of the ribosome; 0.1 μM 30S ICs were formed with Bpy-tRNAi and rapidly mixed with 0.3 μM 50S subunits on a stopped-flow apparatus as described in [14]. Colors are as in (C). Continuous lines show best fits using an exponential function for a single reaction step. Each stopped-flow trace results from the mean of 5 to 7 replicates.
MST was calculated from the respective fluorescence time dependencies (S3 Fig). […] Symbols as in (B). […] Continuous lines indicate nonlinear regression fittings with quadratic (B and E) or same-site competition (G) functions. Three measurements were performed; mean and standard deviations are plotted (S1 Data).

T1 sequence (P0A705 whole entry, looked up): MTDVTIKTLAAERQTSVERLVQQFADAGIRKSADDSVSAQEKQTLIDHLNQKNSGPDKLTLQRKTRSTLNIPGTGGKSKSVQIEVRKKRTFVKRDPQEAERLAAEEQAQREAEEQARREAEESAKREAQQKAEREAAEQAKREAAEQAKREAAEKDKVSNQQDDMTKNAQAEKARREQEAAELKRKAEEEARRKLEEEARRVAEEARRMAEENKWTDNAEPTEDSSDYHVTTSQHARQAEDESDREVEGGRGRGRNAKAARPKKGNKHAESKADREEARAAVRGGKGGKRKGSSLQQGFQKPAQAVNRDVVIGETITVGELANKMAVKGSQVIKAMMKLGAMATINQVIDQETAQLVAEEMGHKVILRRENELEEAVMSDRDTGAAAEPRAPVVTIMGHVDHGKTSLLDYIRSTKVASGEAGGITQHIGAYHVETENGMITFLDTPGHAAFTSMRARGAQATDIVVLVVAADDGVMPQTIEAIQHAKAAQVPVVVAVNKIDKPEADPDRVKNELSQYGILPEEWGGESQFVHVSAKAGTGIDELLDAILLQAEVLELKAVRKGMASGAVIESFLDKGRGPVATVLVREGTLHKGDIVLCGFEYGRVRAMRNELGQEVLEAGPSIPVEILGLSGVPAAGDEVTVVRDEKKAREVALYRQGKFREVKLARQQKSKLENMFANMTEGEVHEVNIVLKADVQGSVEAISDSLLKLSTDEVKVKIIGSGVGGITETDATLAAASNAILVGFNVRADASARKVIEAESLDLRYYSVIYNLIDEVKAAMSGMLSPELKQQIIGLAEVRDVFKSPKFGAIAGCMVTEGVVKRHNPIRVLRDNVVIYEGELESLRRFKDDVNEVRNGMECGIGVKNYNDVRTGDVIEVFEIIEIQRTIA

Nc1nc2c(ncn2[C@@H]2O[C@H](COP(=O)(O)OP(=O)(O)OP(=O)(O)O)[C@@H](O)[C@H]2O)c(=O)[nH]1 [GTP, guanosine triphosphate]
Kd (KD of GTP for the 30S IC, 30S IC programmed with mInfA): 1900 ± 200 nM | Kd (KD of GTP for the 30S IC, 30S IC programmed with mTufA): 280 ± 40 nM | MST Average (mInfA, GTP 0.061 μM): 967.92 a.u. | MST Replicates (a.u.) (mInfA, GTP 0.061 μM): 966.87 a.u. and 968.59 a.u. and 968.30 a.u. | MST Average (mInfA, GTP 0.122 μM): 967.19 a.u. | MST Replicates (a.u.) (mInfA, GTP 0.122 μM): 972.17 a.u. and 974.24 a.u. and 955.18 a.u. | MST Average (mInfA, GTP 0.244 μM): 974.83 a.u. | MST Replicates (a.u.) (mInfA, GTP 0.244 μM): 973.77 a.u. and 975.34 a.u. and 975.39 a.u. | MST Average (mInfA, GTP 1.953 μM): 1006.13 a.u. | MST Average (mInfA, GTP 3.906 μM): 1021.73 a.u. | MST Replicates (a.u.) (mInfA, GTP 3.906 μM): 1021.53 a.u. and 1022.43 a.u. and 1021.24 a.u. | MST Average (mInfA, GTP 7.812 μM): 1043.12 a.u. | MST Replicates (a.u.) (mInfA, GTP 7.812 μM): 1042.43 a.u. and 1043.93 a.u. and 1042.99 a.u. | MST Average (mInfA, GTP 15.625 μM): 1059.58 a.u. | MST Replicates (a.u.) (mInfA, GTP 15.625 μM): 1058.78 a.u. and 1060.65 a.u. and 1059.32 a.u. | MST Average (mInfA, GTP 31.25 μM): 1066.52 a.u. | MST Replicates (a.u.) (mInfA, GTP 31.25 μM): 1066.71 a.u. and 1066.40 a.u. and 1066.45 a.u. | MST Average (mMF1, GTP 0.061 μM): 955.96 a.u. | MST Replicates (a.u.) (mMF1, GTP 0.061 μM): 954.37 a.u. and 956.60 a.u. and 956.92 a.u. | MST Average (mMF1, GTP 0.122 μM): 960.57 a.u. | MST Replicates (a.u.) (mMF1, GTP 0.122 μM): 957.75 a.u. and 961.91 a.u. and 962.05 a.u. | MST Average (mMF1, GTP 0.244 μM): 971.65 a.u. | MST Replicates (a.u.) (mMF1, GTP 0.244 μM): 968.94 a.u. | MST Average (mMF1, GTP 1.953 μM): 1013.90 a.u. | MST Average (mMF1, GTP 3.906 μM): 1027.63 a.u. | MST Replicates (a.u.) (mMF1, GTP 3.906 μM): 1022.88 a.u. and 1029.90 a.u. and 1030.12 a.u. | MST Average (mMF1, GTP 7.812 μM): 1034.32 a.u. | MST Replicates (a.u.) (mMF1, GTP 7.812 μM): 1030.42 a.u. and 1036.20 a.u. and 1036.34 a.u. | MST Average (mMF1, GTP 15.625 μM): 1039.20 a.u. | MST Replicates (a.u.) (mMF1, GTP 15.625 μM): 1035.40 a.u. and 1041.45 a.u. and 1040.76 a.u. | MST Average (mMF1, GTP 31.25 μM): 1035.42 a.u. | MST Replicates (a.u.) (mMF1, GTP 31.25 μM): 1032.74 a.u. and 1036.98 a.u. and 1036.55 a.u. | KD of GTP with mTufA lower than with mMF1 (mTufA vs mMF1): about 2 fold | MST Average (mTufA, GTP 0.244 μM): 1017.37 a.u. | MST Average (mTufA, GTP 1.953 μM): 1082.32 a.u. | MST Average (mTufA, GTP 3.906 μM): 1097.99 a.u. | MST Replicates (a.u.) (mTufA, GTP 3.906 μM): 1095.97 a.u. and 1098.36 a.u. and 1099.66 a.u. | MST Average (mTufA, GTP 7.812 μM): 1113.91 a.u. | MST Replicates (a.u.) (mTufA, GTP 7.812 μM): 1111.40 a.u. and 1114.56 a.u. and 1115.76 a.u. | MST Average (mTufA, GTP 15.625 μM): 1117.61 a.u. | MST Replicates (a.u.) (mTufA, GTP 15.625 μM): 1116.26 a.u. and 1117.65 a.u. and 1118.92 a.u. | MST Average (mTufA, GTP 31.25 μM): 1112.61 a.u. | MST Replicates (a.u.) (mTufA, GTP 31.25 μM): 1112.94 a.u. and 1112.01 a.u. and 1112.88 a.u. | Kd (nucleotide titration at constant IF2 (1 μM), read-out: KD for the IF2-bound 30S IC): 500 ± 100 nM
